According to patent US20240108006A1, “PESTICIDALLY ACTIVE HETEROAROMATIC COMPOUNDS” (SYNGENTA CROP PROTECTION AG, priority 2021, published 2024):

Key:
Chilo suppressalis = assay: Example B1: Chilo suppressalis (striped rice stemborer), artificial diet, L2 larvae; format: in vivo; conditions: 144 h, application rate of 200 ppm, 6 days after infestation, read-out: control in at least one of the three categories (mortality, anti-feedant effect, or growth inhibition)
Experimental: Example B1: Chilo suppressalis (Striped Rice Stemborer)
24-well microtiter plates with artificial diet were treated with aqueous test solutions prepared from 10,000 ppm DMSO stock solutions by pipetting. After drying, the plates were infested with L2 larvae (6-8 per well). The samples were assessed for mortality, anti-feeding effect, and growth inhibition in comparison to untreated samples 6 days after infestation. Control of Chilo suppressalis by a test sample is given when at least one of the categories mortality, anti-feedant effect, and growth inhibition is higher than the untreated sample.

Plutella xylostella = assay: Example B8: Plutella xylostella (diamond back moth), artificial diet 24-well, eggs; format: in vivo; conditions: 192 h, application rate of 200 ppm, 8 days after infestation, read-out: effect in at least one of the two categories (mortality or growth inhibition)
Experimental: Example B8: Plutella xylostella (Diamond Back Moth)
24-well microtiter plates with artificial diet were treated with aqueous test solutions prepared from 10,000 ppm DMSO stock solutions by pipetting. After drying, Plutella eggs were pipetted through a plastic stencil onto a gel blotting paper and the plate was closed with it. The samples were assessed for mortality and growth inhibition in comparison to untreated samples 8 days after infestation.
The following compounds gave an effect of at least 80% in at least one of the two categories (mortality or growth inhibition) at an application rate of 200 ppm: […]

Row | Structure (SMILES) | percent control (mortality, anti-feedant effect or growth inhibition) at 200 ppm (Chilo suppressalis) | percent effect (mortality or growth inhibition) at 200 ppm (Plutella xylostella)
1 | C[C@H](NC(=O)Nc1ccc(C(F)(F)F)c(Cl)c1)c1nccnc1-c1ccc(C#N)cn1 [Example P9, 1-[3-chloro-4-(trifluoromethyl)phenyl]-3-[(1S)-1-[3-(5-cyano-2-pyridyl)pyrazin-2-yl]ethyl]urea] | ≥ 80% | ≥ 80%
2 | C[C@H](NC(=O)Nc1ccc(C(F)(F)F)c(Cl)c1)c1nccnc1-c1ncccn1 [Example P10, 1-[3-chloro-4-(trifluoromethyl)phenyl]-3-[(1S)-1-(3-pyrimidin-2-ylpyrazin-2-yl)ethyl]urea] | ≥ 80% | ≥ 80%
3 | C[C@H](NC(=O)Nc1ncc(C(F)(F)F)cc1Cl)c1ncnn1-c1ncccn1 [Example P25, 1-[3-chloro-5-(trifluoromethyl)-2-pyridyl]-3-[(1S)-1-(2-pyrimidin-2-yl-1,2,4-triazol-3-yl)ethyl]urea] | ≥ 80% | ≥ 80%
4 | C[C@H](NC(=O)N1CCc2ccc(C(F)(F)F)cc21)c1ncnn1-c1ncccn1 [Example P50, N-[(1S)-1-(2-pyrimidin-2-yl-1,2,4-triazol-3-yl)ethyl]-6-(trifluoromethyl)indoline-1-carboxamide] | ≥ 80% | ≥ 80%
5 | C[C@H](NC(=O)Nc1ccc(Cl)cc1Oc1ccc(Cl)cc1)c1ncnn1-c1ncccn1 [Example P51, 1-[4-chloro-2-(4-chlorophenoxy)phenyl]-3-[(1S)-1-(2-pyrimidin-2-yl-1,2,4-triazol-3-yl)ethyl]urea] | ≥ 80% | ≥ 80%
6 | C[C@H](NC(=O)Nc1ccccc1OC(F)F)c1ncnn1-c1ncccn1 [Example P107, 1-[2-(difluoromethoxy)phenyl]-3-[(1S)-1-(2-pyrimidin-2-yl-1,2,4-triazol-3-yl)ethyl]urea] | ≥ 80% | ≥ 80%
7 | C[C@H](NC(=O)Nc1ccc(C(F)(F)F)c(Cl)c1)c1ncnn1-c1ncccn1 [Example P128, 1-[3-chloro-4-(trifluoromethyl)phenyl]-3-[(1S)-1-(2-pyrimidin-2-yl-1,2,4-triazol-3-yl)ethyl]urea] | ≥ 80% | ≥ 80%
8 | C[C@H](NC(=O)Nc1cc(C(F)(F)F)c(Cl)cc1Cl)c1ncnn1-c1ncc(C(=O)N(C)C)s1 [Example P170, 2-[5-[(1S)-1-[[2,4-dichloro-5-(trifluoromethyl)phenyl]carbamoyl-amino]ethyl]-1,2,4-triazol-1-yl]-N, N-dimethyl-thiazole-5-carboxamide] | ≥ 80% | ≥ 80%
9 | COc1cc(NC(=O)N[C@@H](C)c2ncnn2-c2ncccn2)c(Br)cc1Br [Example P200, 1-(2,4-dibromo-5-methoxy-phenyl)-3-[(1S)-1-(2-pyrimidin-2-yl-1,2,4-triazol-3-yl)ethyl]urea] | ≥ 80% | ≥ 80%
10 | CC(C)OC(=O)c1cc(NC(=O)N[C@@H](C)c2ncnn2-c2ncccn2)c(F)cc1Cl [Example P217, isopropyl 2-chloro-4-fluoro-5-[[(1S)-1-(2-pyrimidin-2-yl-1,2,4-triazol-3-yl)ethyl]carbamoylamino]benzoate] | ≥ 80% | ≥ 80%
11 | COc1cc(NC(=O)N[C@@H](C)c2ncnn2-c2ncccn2)c(F)cc1Br [Example P220, 1-(4-bromo-2-fluoro-5-methoxy-phenyl)-3-[(1S)-1-(2-pyrimidin-2-yl-1,2,4-triazol-3-yl)ethyl]urea] | ≥ 80% | ≥ 80%
12 | C[C@H](NC(=O)Nc1cc(OC(F)(F)C(F)F)c(Cl)cc1Cl)c1nccnc1-c1ccc(C#N)cn1 [Example P245, 1-[(1S)-1-[3-(5-cyano-2-pyridyl)pyrazin-2-yl]ethyl]-3-[2,4-dichloro-5-(1,1,2,2-tetrafluoroethoxy)phenyl]urea] | ≥ 80% | ≥ 80%
13 | CC(NC(=O)Nc1ccc(Cl)c(C(F)(F)F)c1)c1nccnc1-n1nccn1 (stereo not shown) [Example P259, 1-[4-chloro-3-(trifluoromethyl)phenyl]-3-[1-[3-(triazol-2-yl)pyrazin-2-yl]ethyl]urea] | – | ≥ 80%
14 | CC(NC(=O)Nc1cc(C(F)(F)F)c(Cl)cc1Br)c1nccnc1-n1nccn1 (stereo not shown) [Example P260, 1-[2-bromo-4-chloro-5-(trifluoromethyl)phenyl]-3-[1-[3-(triazol-2-yl)pyrazin-2-yl]ethyl]urea] | ≥ 80% | ≥ 80%
15 | C[C@@H](c1ncnn1-c1ncccn1)N(C)C(=O)N(C)c1cnc(C(F)(F)F)cc1Cl [Example P270, 1-[4-chloro-6-(trifluoromethyl)-3-pyridyl]-1,3-dimethyl-3-[(1S)-1-(2-pyrimidin-2-yl-1,2,4-triazol-3-yl)ethyl]urea] | ≥ 80% | ≥ 80%
16 | C[C@H](NC(=O)Nc1c(Cl)cc(Cl)c(OC(F)(F)C(F)F)c1I)c1nccnc1-c1ccc(C#N)cn1 [Example P275, 1-[(1S)-1-[3-(5-cyano-2-pyridyl)pyrazin-2-yl]ethyl]-3-[4,6-dichloro-2-iodo-3-(1,1,2,2-tetrafluoroethoxy)phenyl]urea] | ≥ 80% | ≥ 80%
17 | COc1cc(NC(=O)N[C@@H](C)c2ncnn2-c2ncccn2)c(I)cc1Cl [Example P288, 1-(4-chloro-2-iodo-5-methoxy-phenyl)-3-[(1S)-1-(2-pyrimidin-2-yl-1,2,4-triazol-3-yl)ethyl]urea] | – | ≥ 80%
18 | Cc1cc(NC(=O)N[C@@H](C)c2ncnn2-c2ncccn2)c(Cl)cc1Br [Example P290, 1-(4-bromo-2-chloro-5-methyl-phenyl)-3-[(1S)-1-(2-pyrimidin-2-yl-1,2,4-triazol-3-yl)ethyl]urea] | – | ≥ 80%
19 | Cc1cc(Br)c(Cl)cc1NC(=O)N[C@@H](C)c1ncnn1-c1ncccn1 [Example P299, 1-(4-bromo-5-chloro-2-methyl-phenyl)-3-[(1S)-1-(2-pyrimidin-2-yl-1,2,4-triazol-3-yl)ethyl]urea] | ≥ 80% | ≥ 80%
20 | Cc1cc(Cl)c(Br)cc1NC(=O)N[C@@H](C)c1ncnn1-c1ncccn1 [Example P305, 1-(5-bromo-4-chloro-2-methyl-phenyl)-3-[(1S)-1-(2-pyrimidin-2-yl-1,2,4-triazol-3-yl)ethyl]urea] | – | ≥ 80%
21 | COc1cc(Br)c(Cl)cc1NC(=O)N[C@@H](C)c1ncnn1-c1ncccn1 [Example P368, 1-(4-bromo-5-chloro-2-methoxy-phenyl)-3-[(1S)-1-(2-pyrimidin-2-yl-1,2,4-triazol-3-yl)ethyl]urea] | – | ≥ 80%
